Measurements as given in patent publication US20110319392A1, “Thiazole Sulfonamide And Oxazole Sulfonamide Kinase Inhibitors” (priority 2009, published 2011).

Experiments:
HT-29 tumor cells = assay: Cell growth inhibition assay (CellTiter-Glo), HT-29; format: cell-based, Human; settings: Homo sapiens
In short: (§1)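 Cells plated at 500 cells/well in their growth media, dosed next day with nine-step 1:3 compound dilutions (final DMSO 0.2%), then incubated 3 days at 37° C, 5% CO2. Total ATP read by CellTiter-Glo luminescence as a surrogate for cell number; IC50 interpolated from 4-parameter fit versus DMSO controls.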

Colo205 tumor cells = assay: Cell growth inhibition assay (CellTiter-Glo), Colo205; format: cell-based, Human; settings: Homo sapiens, COLO 205, 72 h; 3 days incubation
In short: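 Readout was CellTiter-Glo luminescence (total ATP, surrogate for cell number) after 3-day exposure at 37° C, 5% CO2 to 1:3 serial compound dilutions in 0.2% final DMSO. Seeding was 500 cells/well; IC50 derived by 4-parameter fit relative to vehicle-treated wells.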

EGFR = target: T1, EGFR (Homo sapiens, UniProt P00533); assay: EGFR substrate phosphorylation assay (HTRF); format: biochemical
T1 construct: made in house; host or cells: baculovirus expression system
In short: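 Baculovirus-expressed EGFR (0.8 nM) or ErbB2 (10 nM) in enzyme mix, preincubated 1 h at 20 °C with compound (0.00027–47.6 μM final), then 90 min at 20 °C with substrate mix of 20 μM ATP, 0.8 uM biotinylated Peptide C, MnCl2, MOPS pH 7.5. Phosphotyrosine by HTRF; pIC50 reported.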

A375P F11s tumor cells = assay: Cell growth inhibition assay (CellTiter-Glo), A375P F11s; format: cell-based, Human; settings: Homo sapiens
In short: as §1

T1 sequence (P00533 25-1210): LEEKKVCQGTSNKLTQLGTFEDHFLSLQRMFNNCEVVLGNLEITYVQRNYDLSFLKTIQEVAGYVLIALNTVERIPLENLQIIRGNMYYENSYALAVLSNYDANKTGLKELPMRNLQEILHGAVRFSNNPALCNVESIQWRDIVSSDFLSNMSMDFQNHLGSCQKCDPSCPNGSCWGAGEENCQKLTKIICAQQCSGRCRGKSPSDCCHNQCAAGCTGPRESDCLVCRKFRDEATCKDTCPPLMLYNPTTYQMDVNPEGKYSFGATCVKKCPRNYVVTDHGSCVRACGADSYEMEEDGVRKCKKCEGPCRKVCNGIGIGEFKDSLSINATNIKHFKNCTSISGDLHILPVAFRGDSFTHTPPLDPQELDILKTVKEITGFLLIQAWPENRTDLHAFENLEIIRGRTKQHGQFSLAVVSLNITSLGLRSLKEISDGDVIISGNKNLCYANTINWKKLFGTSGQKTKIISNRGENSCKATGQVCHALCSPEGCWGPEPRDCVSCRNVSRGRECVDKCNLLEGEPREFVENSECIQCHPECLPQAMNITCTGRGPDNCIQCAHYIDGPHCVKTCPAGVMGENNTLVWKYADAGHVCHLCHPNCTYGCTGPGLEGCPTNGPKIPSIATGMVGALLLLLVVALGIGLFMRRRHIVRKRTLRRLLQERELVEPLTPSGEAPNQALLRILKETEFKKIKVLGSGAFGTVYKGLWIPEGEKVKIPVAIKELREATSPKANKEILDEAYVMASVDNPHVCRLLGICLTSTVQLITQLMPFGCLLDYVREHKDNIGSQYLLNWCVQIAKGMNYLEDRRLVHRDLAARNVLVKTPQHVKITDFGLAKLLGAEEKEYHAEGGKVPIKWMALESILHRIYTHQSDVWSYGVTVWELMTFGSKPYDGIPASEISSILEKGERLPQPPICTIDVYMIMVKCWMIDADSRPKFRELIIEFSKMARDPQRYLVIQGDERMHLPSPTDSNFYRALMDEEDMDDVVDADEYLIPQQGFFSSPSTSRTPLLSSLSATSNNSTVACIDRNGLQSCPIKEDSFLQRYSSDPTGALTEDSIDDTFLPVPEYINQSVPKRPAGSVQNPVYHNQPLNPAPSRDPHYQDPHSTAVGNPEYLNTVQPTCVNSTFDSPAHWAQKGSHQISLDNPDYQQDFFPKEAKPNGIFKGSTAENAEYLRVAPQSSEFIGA

Row | Compound | IC50 (HT-29 tumor cells) | IC50 (Colo205 tumor cells) | IC50 (EGFR) | IC50 (A375P F11s tumor cells)
1 | CCc1nc(-c2cccc(NS(=O)(=O)c3ccccc3)c2)c(-c2ccnc(Nc3ccc(OC)c(N4CCN(CCS(C)(=O)=O)CC4)c3)n2)s1 [Example 5, N-[3-(2-Ethyl-5-{2-[(4-(methyloxy)-3-{4-[2-(methylsulfonyl)ethyl]-1-piperazinyl}phenyl)amino]-4-pyrimidinyl}-1,3-thiazol-4-yl)phenyl]benzenesulfonamide] | < 100 nM | < 100 nM | 100 to 1000 nM | < 100 nM
2 | CC(C)c1nc(-c2cccc(NS(=O)(=O)c3c(F)cccc3F)c2)c(-c2ccnc(Nc3ccc(N4CCN(C(C)C)CC4)cc3O)n2)s1 [Example 78] | > 1000 nM | < 100 nM | 100 to 1000 nM | < 100 nM
3 | COc1cc(N2CCN(CCF)CC2)ccc1Nc1nccc(-c2sc(C(C)C)nc2-c2cccc(NS(=O)(=O)c3c(F)cccc3F)c2)n1 [Example 79] | 100 to 1000 nM | 100 to 1000 nM | 100 to 1000 nM | 100 to 1000 nM
4 | CC(C)c1nc(-c2cc(F)cc(NS(=O)(=O)c3c(F)cccc3F)c2)c(-c2ccnc(Nc3ccc(N4CCOCC4)c(F)c3)n2)s1 [Example 85] | 100 to 1000 nM | < 100 nM | > 1000 nM | < 100 nM
5 | CC(C)c1nc(-c2cccc(NS(=O)(=O)c3c(F)cccc3F)c2)c(-c2ccnc(Nc3cc(F)c(N4CCN(CCS(C)(=O)=O)CC4)cc3F)n2)s1 [Example 87] | 100 to 1000 nM | < 100 nM | > 1000 nM | < 100 nM
6 | CC(C)c1nc(-c2cccc(NS(=O)(=O)c3c(F)cccc3F)c2)c(-c2ccnc(Nc3ccc(N4CCCN(CCS(C)(=O)=O)CC4)nc3)n2)s1 [Example 88] | < 100 nM | < 100 nM | 100 to 1000 nM | < 100 nM
7 | Cc1cc(N2CCC(N3CCCCC3)CC2)ccc1Nc1nccc(-c2sc(C(C)C)nc2-c2cccc(NS(=O)(=O)c3c(F)cccc3F)c2)n1 [Example 91] | > 1000 nM | < 100 nM | < 100 nM | 100 to 1000 nM
8 | C=C(C)c1nc(-c2cccc(NS(=O)(=O)c3c(F)cccc3F)c2)c(-c2ccnc(Nc3ccc(N4CCN(CCF)CC4)c(F)c3)n2)s1 [Example 93] | > 1000 nM | < 100 nM | 100 to 1000 nM | 100 to 1000 nM
9 | CC(C)c1nc(-c2ccc(F)c(NS(=O)(=O)c3c(F)cccc3F)c2)c(-c2ccnc(Nc3ccc(N4CCN(CCS(C)(=O)=O)CC4)c(F)c3)n2)s1 [Example 95] | > 1000 nM | < 100 nM | 100 to 1000 nM | 100 to 1000 nM
10 | CC(=O)N1CCN(c2ccc(Nc3nccc(-c4sc(C(C)C)nc4-c4cccc(NS(=O)(=O)c5cc(F)ccc5F)c4)n3)cn2)CC1 [Example 96] | < 100 nM | < 100 nM | 100 to 1000 nM | < 100 nM

Other lines, results leading:

Row | IC50 (HT-29 tumor cells) | IC50 (Colo205 tumor cells) | IC50 (EGFR) | IC50 (A375P F11s tumor cells) | Compound
11 | 100 to 1000 nM | < 100 nM | > 1000 nM | < 100 nM | CCc1nc(-c2cccc(NS(=O)(=O)c3ccccc3)c2)c(-c2ccnc(Nc3ccc(N4CCN(C(C)=O)CC4)nc3)n2)s1 [Example 3, N-{3-[5-(2-{[6-(4-Acetyl-1-piperazinyl)-3-pyridinyl]amino}-4-pyrimidinyl)-2-ethyl-1,3-thiazol-4-yl]phenyl}benzenesulfonamide]
12 | 100 to 1000 nM | 100 to 1000 nM | > 1000 nM | 100 to 1000 nM | CCc1nc(-c2cccc(NS(=O)(=O)c3ccccc3)c2)c(-c2ccnc(Nc3ccc(N4CCOCC4)c(F)c3)n2)s1 [Example 4]
13 | < 100 nM | < 100 nM | 100 to 1000 nM | < 100 nM | CC(=O)N1CCc2cc(Nc3nccc(-c4sc(C(C)C)nc4-c4cccc(NS(=O)(=O)c5ccccc5)c4)n3)ccc21 [Example 71]
14 | 100 to 1000 nM | 100 to 1000 nM | 100 to 1000 nM | 100 to 1000 nM | CC(C)c1nc(-c2cccc(NS(=O)(=O)c3ccccc3)c2)c(-c2ccnc(Nc3ccc(CC4CCN(CCS(C)(=O)=O)CC4)c(F)c3)n2)s1 [Example 72]
15 | 100 to 1000 nM | < 100 nM | 100 to 1000 nM | < 100 nM | CC(C)c1nc(-c2cccc(NS(=O)(=O)c3ccccc3)c2)c(-c2ccnc(Nc3ccc(F)c(N4CCN(CCS(C)(=O)=O)CC4)c3)n2)s1 [Example 73]
16 | > 1000 nM | 100 to 1000 nM | > 1000 nM | 100 to 1000 nM | CC(C)c1nc(-c2cccc(NS(=O)(=O)c3ccccc3)c2)c(-c2ccnc(Nc3ccc(N4CCN(CCS(C)(=O)=O)CC4)c(F)c3F)n2)s1 [Example 74]
17 | 100 to 1000 nM | < 100 nM | < 100 nM | < 100 nM | CC(C)c1nc(-c2cccc(NS(=O)(=O)c3c(F)cccc3F)c2)c(-c2ccnc(Nc3ccc(N4CCN(CCO)CC4)nc3)n2)s1 [Example 80]
18 | 100 to 1000 nM | < 100 nM | < 100 nM | < 100 nM | CC(C)c1nc(-c2cccc(NS(=O)(=O)c3c(F)cccc3F)c2)c(-c2ccnc(Nc3cccc(N4CCN(C)CC4)c3)n2)s1 [Example 81]
19 | 100 to 1000 nM | < 100 nM | < 100 nM | < 100 nM | CC(C)c1nc(-c2cccc(NS(=O)(=O)c3c(F)cccc3F)c2)c(-c2ccnc(Nc3ccc(N4CCCNCC4)nc3)n2)s1 [Example 82]
20 | > 1000 nM | 100 to 1000 nM | > 1000 nM | 100 to 1000 nM | CC(C)c1nc(-c2cc(F)cc(NS(=O)(=O)c3ccc(F)cc3)c2)c(-c2ccnc(Nc3ccc(N4CCOCC4)c(F)c3)n2)s1 [Example 83]
21 | < 100 nM | < 100 nM | 100 to 1000 nM | < 100 nM | CC(C)c1nc(-c2cc(F)cc(NS(=O)(=O)c3c(F)cccc3F)c2)c(-c2ccnc(Nc3ccc(N4CCOCC4)nc3)n2)s1 [Example 84]
22 | > 1000 nM | < 100 nM | 100 to 1000 nM | < 100 nM | CC(C)c1nc(-c2cccc(NS(=O)(=O)c3c(F)cccc3F)c2)c(-c2ccnc(Nc3ccc(N4CC[C@@H](O)C4)nc3)n2)s1 [Example 89]
23 | > 1000 nM | 100 to 1000 nM | > 1000 nM | 100 to 1000 nM | CC(C)c1nc(-c2cccc(NS(=O)(=O)c3ccccc3)c2)c(-c2ccnc(Nc3ccc(N4CCOCC4)cn3)n2)s1 [Example 92]
